Reference: patent publication US20130095059A1, “INHALED NO DONOR KMUPS DERIVATIVE PREVENTING ALLERGIC PULMONARY VASCULAR AND BRONCHIAL INFLAMMATION VIA SUPPRESSED CYTOKINES, INOS AND INFLAMMATORY CELL COUNTS IN ASTHMA MODEL” (priority 2007, published 2013)

Key:
[1] = test system: MMP-9; assay: Ovalbumine model, MMP-9 expression, zymography and immunostaining; format: in vivo, BALB/c mice; details: oral 2.5 mg Kg^−1; non-treatment allergic animal 100 %
[2] = test system: iNOS; assay: Ovalbumine model, iNOS expression; format: in vivo, BALB/c mice; details: non-treatment allergic animal 100 %
[3] = test system: IL-5; assay: Ovalbumine model, plasma IL-5 (ELISA); format: in vivo, mice; details: OVA-sens, OVA-sens alone 43 ± 6
Experimental: (§1) In this long-term experiment, 6-8 week old BALB/c female mice were sensitized on days 1 and 8 by intra-peritoneal injection (i.p.) of ovalbumine (10 μg) (Sigma-Aldrich, Schnelldorf, Germany) adsorbed to 2 mg aluminum hydroxide (AlumInject; Perbio, Erembodegem, Belgium). Mice were divided into three groups. In Group 1, a control group was only exposed to saline nebulization by aerosol. The other 2 groups were subjected to ovalbumine (1%) nebulization. Before each challenge with ovalbumine, mice were either exposed to saline nebulization (Group 2) or KMUP-1 nebulization (5 mM) for 30 min by aerosol (Group 3).

[4] = test system: IL-13; assay: Ovalbumine model, plasma IL-13 (ELISA); format: in vivo, mice; details: OVA-sens, OVA-sens alone 35 ± 6
Experimental: as §1

[5] = test system: BALF cells; assay: Ovalbumine model, bronchoalveolar lavage cell counts; format: in vivo, BALB/c mice; details: oral 2.5 mg Kg^−1; for Neurophil: OVA 1.0 ± 0.2; for Lymphocyte / monocyte: OVA 2.4 ± 0.3; for (Table 5) / Eosinophil: OVA 37.2 ± 2.8; for Total cells: OVA 65.3 ± 3.4
[6] = test system: ROCKII; assay: Protein expression (optical density %) after KMUPs salts, ROCKII; format: cell-based; details: 10 μM, 120 min; without treatment control 100 %
[7] = test system: eNOS; assay: Protein expression (optical density %) after KMUPs salts, eNOS; format: cell-based; details: 10 μM, 120 min; without treatment control 100 %
[8] = test system: PDE-5A; assay: Protein expression (optical density %) after KMUPs salts, PDE-5A; format: cell-based; details: 10 μM, 120 min; without treatment control 100 %
[9] = test system: MMP-9; assay: Ovalbumine model, MMP-9 expression, zymography and immunostaining; format: in vivo, BALB/c mice; details: inhalation 5 mM; non-treatment allergic animal 100 %
Experimental: as §1
The gelatinolytic activity of MMP-9 was measured by gelatin zymography as described previously (Cataldo D D, et al., 2002). Briefly, BALF (10 μl) was subjected to electrophoresis in 10% polyacrylamide gel containing gelatin (1 mg/ml). The gel was washed in 2.5% Triton X-100 to permit re-naturation of gelatinases and stained with Coomassie blue after overnight incubation. Destaining visualized clear zones of lysis against a blue background indicated the gelatinase activity (Hibbs, M S, et al., 1985).
The lung tissues were homogenized, washed with PBS and incubated in lysis buffer in addition to a protease inhibitor cocktail (Sigma, St. Louis, Mo.) to obtain extracts of lung proteins. A Western blot analysis was performed as described previously (Wu B N, et al., 2006). The samples were loaded to 10% SDS-PAGE gels and were separated at 120 V for 90 min. The blots were incubated with anti-eNOS antibody diluted at a ratio of 1:500, anti-sGCα1 antibody diluted at a ratio of 1:2000, anti-PKG antibody diluted at a ratio of 1:500, anti-VCAM-1 antibody diluted at a ratio of 1:500, anti-ICAM-1 antibody diluted at a ratio of 1:500, and anti-MMP-9 antibody diluted at a ratio of 1:600 overnight at 4° C. The membranes were stripped and re-blotted with anti-actin antibody (Sigma, St. Louis, Mo.) to verify the equal loading of protein in each lane.
Immunohistochemical analysis of eNOS enhancement by KMUP-1 was performed as follows. The lungs were perfused with saline followed by 10% formalin and then placed in 10% formalin for paraffin embedding. The lung tissues were cut into […] sections onto slides, dewaxed in 100% xylene, and then re-hydrated in graded alcohol solutions. Throughout the procedures, slides were washed as appropriate in PBS. Antigen retrieval was performed by microwave treatment for eNOS immunostaining. Sections were treated with 3% H2O2 (10 min) to inhibit endogenous peroxidases and incubated with normal serum (60 min) to reduce nonspecific binding of secondary antibodies. Sections were then incubated at 4° C. overnight with eNOS antibodies. After washing off unbounded primary antibodies, sections were incubated with secondary biotinylated antibodies against mouse or rabbit (DAKO Co., Japan) (60 min), followed by incubation in avidin/biotin/horseradish peroxidase complex (DAKO Co., Japan) (30 min) Subsequently, peroxidase activity was visualized by incubation (3 min) with 0.05% 3,3′-diaminobenzidine (DAKO Co., Japan), which gives a brown reaction product. The reaction was stopped by washing with water. The slides were counterstained with hematoxylin. For immunostaining of MMP-9 in lung tissue, the de-paraffinized 3-5 μm sections of lung tissue was performed as above eNOS, but using MMP-9 antibody.

[10] = test system: BALF cells; assay: Ovalbumine model, bronchoalveolar lavage cell counts; format: in vivo, BALB/c mice; details: inhalation 5 mM; for Neurophil: OVA 1.0 ± 0.2; for Lymphocyte / monocyte: OVA 2.4 ± 0.3; for (Table 5) / Eosinophil: OVA 37.2 ± 2.8; for Total cells: OVA 65.3 ± 3.4
Experimental: as §1
After the sacrifice of mice, a cannula was placed in the trachea for bronchoalveolar lavage by gentle manual aspiration, using cold PBS-EDTA (0.05 mM, 1 ml) (Calbiochem, Darmstadt, Germany) as previously described (Cataldo D D, et al., 2002). The broncho alveolar lavage fluid (BALF) was centrifuged at 4° C. for 10 min (1200 rpm). The supernatant was frozen at −80° C. for protein assessment and the cell pellet was resuspended in PBS-EDTA (0.05 mM, 1 ml). Total cell counts were performed manually using a thoma chamber. The differential cell counts were performed using morphologic criteria on cytocentrifuged preparations (Cytospin) after staining with Diff-Quick (Dade, Belgium). Differential cell counts were performed by one blinded observer unaware of the experimental treatment.

Row | SMILES | MMP-9 [1] [%] | iNOS ([2]; oral 2.5 mg Kg^−1) [%] | Neurophil [5] | Lymphocyte [5] | monocyte [5] | (Table 5) [5] | Eosinophil [5] | Total cells [5] | ROCKII protein expression, optical densitivity % [6] [%] | eNOS protein expression, optical densitivity % [7] [%] | PDE-5A protein expression, optical densitivity % [8] [%] | iNOS ([2]; inhalation 5 mM) [%] | MMP-9 [9] [%] | Neurophil [10] | Lymphocyte [10] | monocyte [10] | (Table 5) [10] | Eosinophil [10] | Total cells [10] | other results
1 | CCC(C)(C)C(=O)O[C@H]1C[C@@H](C)C=C2C=C[C@H](C)[C@H](CC[C@@H]3C[C@@H](O)CC(=O)O3)[C@H]21 [Simvastatin, reference compound] | 41 ± 2.5 | 58 ± 12.4 | 1.5 ± 0.4 × 10^4 cell/ml | 1.8 ± 0.7 × 10^4 cell/ml | 1.8 ± 0.7 × 10^4 cell/ml | 27 ± 1.6 × 10^4 cell/ml | 27 ± 1.6 × 10^4 cell/ml | 52.5 ± 0.4 × 10^4 cell/ml | – | – | – | – | – | – | – | – | – | – | – | IL-5 ([3]; oral 2.5 mg Kg^−1): 158 ± 12.4 pg/mL; IL-13 ([4]; oral 2.5 mg Kg^−1): 41 ± 2.5 pg/mL
2 | Cn1c(=O)c2c(ncn2CCN2CCN(c3ccccc3Cl)CC2)n(C)c1=O.O=C(O)CC(O)(CC(=O)O)C(=O)O [KMUP-1-citric acid, 7-[2-[4-(2-chlorobenzene)piperazinyl]ethyl]-1,3-dimethylxanthine-Citric acid] | – | – | – | – | – | – | – | – | 43 ± 3.8 | 152 ± 13.6 | 66 ± 5.2 | – | – | – | – | – | – | – | – | –
3 | Cl.Cn1c(=O)c2c(ncn2CCN2CCN(c3ccccc3[N+](=O)[O-])CC2)n(C)c1=O [KMUP-4 HCl, 7-[2-[4-(2-nitrobenzene)piperazinyl]ethyl]-1,3-dimethylxanthine hydrochloride] | 56 ± 3.4 | 31 ± 6.7 | 1.1 ± 0.3 × 10^4 cell/ml | 1.7 ± 1.8 × 10^4 cell/ml | 1.7 ± 1.8 × 10^4 cell/ml | 20 ± 3.5 × 10^4 cell/ml | 20 ± 3.5 × 10^4 cell/ml | 51.8 ± 0.4 × 10^4 cell/ml | 37 ± 2.8 | 135 ± 7.5 | 73 ± 3.4 | 35 ± 7.5 | 37 ± 2.8 | 1.1 ± 0.2 × 10^4 cell/ml | 1.6 ± 3.4 × 10^4 cell/ml | 1.6 ± 3.4 × 10^4 cell/ml | 21 ± 6.7 × 10^4 cell/ml | 21 ± 6.7 × 10^4 cell/ml | 53.4 ± 0.3 × 10^4 cell/ml | –
4 | Cl.Cn1c(=O)c2c(ncn2CCN2CCN(c3ccccc3Cl)CC2)n(C)c1=O [KMUP-1 HCl, 7-[2-[4-(2-chlorophenyl)piperazinyl]ethyl]-1,3-dimethylxanthine HCl] | – | – | – | – | – | – | – | – | 42 ± 6.3 | 155 ± 14.8 | 64 ± 4.5 | 55 ± 14.8 | 42 ± 6.3 | 1.0 ± 0.2 × 10^4 cell/ml | 1.5 ± 0.3 × 10^4 cell/ml | 1.5 ± 0.3 × 10^4 cell/ml | 23.7 ± 2.8 × 10^4 cell/ml | 23.7 ± 2.8 × 10^4 cell/ml | 50.6 ± 2.4 × 10^4 cell/ml | IL-5 ([3]; inhalation 5 mM): 31 ± 6 pg/mL; IL-13 ([4]; inhalation 5 mM): 14 ± 5 pg/mL
5 | COc1ccccc1N1CCN(CCn2cnc3c2c(=O)n(C)c(=O)n3C)CC1.Cl [KMUP-2 HCl, 7-[2-[4-(2-methoxybenzene)piperazinyl]ethyl]-1,3-dimethylxanthine hydrochloride] | – | – | – | – | – | – | – | – | 40 ± 3.7 | – | 68 ± 5.3 | 47 ± 8.6 | 40 ± 3.7 | 1.0 ± 0.4 × 10^4 cell/ml | 1.2 ± 3.7 × 10^4 cell/ml | 1.2 ± 3.7 × 10^4 cell/ml | 25 ± 2.2 × 10^4 cell/ml | 25 ± 2.2 × 10^4 cell/ml | 51.0 ± 0.4 × 10^4 cell/ml | IL-5 ([3]; inhalation 5 mM): 32 ± 6 pg/mL; IL-13 ([4]; inhalation 5 mM): 15 ± 3 pg/mL
6 | Cn1c(=O)c2c(ncn2CCN2CCN(c3ccccc3Cl)CC2)n(C)c1=O.O=C(O)c1cccnc1 [KMUP-1-nicotinic acid, 7-[2-[4-(2-chlorobenzene)piperazinyl]ethyl]-1,3-dimethylxanthine-Nicotinic acid] | – | – | – | – | – | – | – | – | 41 ± 2.5 | 158 ± 12.4 | 62 ± 4.8 | – | – | – | – | – | – | – | – | –
7 | Cn1c(=O)c2c(ncn2CCN2CCN(c3ccccc3[N+](=O)[O-])CC2)n(C)c1=O.O=C(O)CC(O)(CC(=O)O)C(=O)O [KMUP-4-citric acid, 7-[2-[4-(2-nitrobenzene)piperazinyl]ethyl]-1,3-dimethylxanthine-Citric acid] | – | – | – | – | – | – | – | – | 56 ± 3.4 | 131 ± 6.7 | 78 ± 3.6 | – | – | – | – | – | – | – | – | –
8 | Cn1c(=O)c2c(ncn2CCN2CCN(c3ccc([N+](=O)[O-])cc3)CC2)n(C)c1=O.O=C(O)c1cccnc1 [KMUP-3-nicotinic acid, 7-[2-[4-(4-nitrobenzene)piperazinyl]ethyl]-1,3-dimethylxanthine-Nicotinic acid] | – | – | – | – | – | – | – | – | 43 ± 1.6 | 145 ± 7.5 | 60 ± 4.1 | – | – | – | – | – | – | – | – | –
9 | COc1ccccc1N1CCN(CCn2cnc3c2c(=O)n(C)c(=O)n3C)CC1.O=C(O)CC(O)(CC(=O)O)C(=O)O [KMUP-2-citric acid, 7-[2-[4-(2-methoxybenzene)piperazinyl]ethyl]-1,3-dimethylxanthine-Citric acid] | – | – | – | – | – | – | – | – | 40 ± 3.7 | – | 71 ± 5.4 | – | – | – | – | – | – | – | – | –
10 | Cl.Cn1c(=O)c2c(ncn2CCN2CCN(c3ccc([N+](=O)[O-])cc3)CC2)n(C)c1=O [KMUP-3 HCl, 7-[2-[4-(4-nitrobenzene)piperazinyl]ethyl]-1,3-dimethyl xanthine HCl] | 43 ± 1.6 | 45 ± 7.5 | 1.1 ± 0.3 × 10^4 cell/ml | 1.7 ± 2.8 × 10^4 cell/ml | 1.7 ± 2.8 × 10^4 cell/ml | 25 ± 2.5 × 10^4 cell/ml | 25 ± 2.5 × 10^4 cell/ml | 51.2 ± 0.3 × 10^4 cell/ml | 44 ± 2.9 | 148 ± 7.5 | 63 ± 5.2 | 48 ± 7.5 | 44 ± 2.9 | 1.0 ± 0.3 × 10^4 cell/ml | 1.3 ± 0.6 × 10^4 cell/ml | 1.3 ± 0.6 × 10^4 cell/ml | 24 ± 3.5 × 10^4 cell/ml | 24 ± 3.5 × 10^4 cell/ml | 52.1 ± 0.2 × 10^4 cell/ml | –
